Experimental data published in US8822503B2, “2-pyridone compounds” (Taisho Pharmaceutical Co., Ltd, priority 2009, dated 2014).

biological target: T1, human liver GK (Homo sapiens, UniProt P35557); test: GK activation test; assay type: biochemical; settings: test compound concentration needed to activate 50% of maximum activation ability; 4 mM 14C-labeled glucose, 2 mM ATP, room temperature, 20 minutes
T1 construct: GST (glutathione S-transferase) (N); made in house; host or cells: E. coli
T1 sequence (P35557 1-466 isoform P35557-2): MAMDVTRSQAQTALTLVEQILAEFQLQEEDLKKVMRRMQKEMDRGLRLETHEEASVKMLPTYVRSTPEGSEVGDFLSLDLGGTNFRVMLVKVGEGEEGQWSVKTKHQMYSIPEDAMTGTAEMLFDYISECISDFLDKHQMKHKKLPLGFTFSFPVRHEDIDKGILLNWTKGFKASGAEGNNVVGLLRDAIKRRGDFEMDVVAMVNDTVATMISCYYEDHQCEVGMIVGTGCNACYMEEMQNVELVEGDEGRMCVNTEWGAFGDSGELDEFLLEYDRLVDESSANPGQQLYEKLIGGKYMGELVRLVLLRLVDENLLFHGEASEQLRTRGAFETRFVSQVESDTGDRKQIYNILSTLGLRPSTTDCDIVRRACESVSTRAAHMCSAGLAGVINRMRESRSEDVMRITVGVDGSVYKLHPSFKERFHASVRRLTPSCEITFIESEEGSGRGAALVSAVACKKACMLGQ
How it was run: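 GST-tagged human liver GK from E. coli (0.24 μg/well) with 4 mM 14C-glucose, 2 mM ATP in Hepes-KOH pH 7.1, KCl, MgCl2, DTT, 1% DMSO, 20 min room temperature. Labeled glucose 6-phosphate captured on anion resin, eluted and counted. EC50 = concentration giving half of maximal activation.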

| EC50 | SMILES |
| --- | --- |
| 0.5 to 3 µM | CCCc1ccc(C(CC2CCCC2)c2ccc(S(C)(=O)=O)cc2)[nH]c1=O (centres unmarked) [Example 2-9, 6-{2-Cyclopentyl-1-[4-(methylsulfonyl)phenyl]ethyl}-3-propylpyridin-2(1H)-one] |
| 0.5 to 3 µM | CS(=O)(=O)c1ccc(C(CC2CCCC2)c2ccc(C3CC3)c(=O)[nH]2)cc1 (centres unmarked) [Example 2-10, 6-{2-Cyclopentyl-1-[4-(methylsulfonyl)phenyl]ethyl}-3-cyclopropylpyridin-2(1H)-one] |
| 0.5 to 3 µM | CCc1ccc(C(CC2CCCC2)c2ccc(S(=O)(=O)CCCO)cc2)[nH]c1=O (centres unmarked) [Example 2-11, 6-(2-Cyclopentyl-1-{4-[(3-hydroxypropyl)sulfonyl]phenyl}ethyl)-3-ethylpyridin-2(1H)-one] |
| 0.5 to 3 µM | CC(C)c1ccc(C(CC2CCCC2)c2ccc(S(C)(=O)=O)cc2)[nH]c1=O (centres unmarked) [Example 2-12, 6-{2-Cyclopentyl-1-[4-(methylsulfonyl)phenyl]ethyl}-3-(propan-2-yl)pyridin-2(1H)-one] |
| 0.5 to 3 µM | CCN(CC)CCCS(=O)(=O)c1ccc(C(CC2CCCC2)c2ccc(C)c(=O)[nH]2)cc1Cl (centres unmarked) [Example 2-13, 6-[1-(3-Chloro-4-{[3-(diethylamino)propyl]sulfonyl}phenyl)-2-cyclopentylethyl]-3-methylpyridin-2(1H)-one] |
| 0.5 to 3 µM | Cc1ccc(C(CC2CCCC2)c2ccc(S(=O)(=O)CCCO)c(Cl)c2)[nH]c1=O (centres unmarked) [Example 2-14, 6-(1-{3-Chloro-4-[(3-hydroxypropyl)sulfonyl]phenyl}-2-cyclopentylethyl)-3-methylpyridin-2(1H)-one] |
| 0.01 to 0.5 µM | Cc1ccc(C(CCC2CCCC2)c2ccc(S(=O)(=O)C3CC3)cc2)[nH]c1=O (centres unmarked) [Example 2-15, 6-{3-Cyclopentyl-1-[4-(cyclopropylsulfonyl)phenyl]propyl}-3-methylpyridin-2(1H)-one] |
| 0.5 to 3 µM | CSc1ccc(C(CC2CCCCC2)c2ccc(C)c(=O)[nH]2)cc1 (centres unmarked) [Example 2-16, 6-{2-Cyclohexyl-1-[4-(methylsulfanyl)phenyl]ethyl}-3-methylpyridin-2(1H)-one] |
| 0.5 to 3 µM | Cc1ccc(C(CC2CCCCC2)c2ccc(S(C)(=O)=O)cc2)[nH]c1=O (centres unmarked) [Example 2-17, 6-{2-Cyclohexyl-1-[4-(methylsulfonyl)phenyl]ethyl}-3-methylpyridin-2(1H)-one] |
| 3 to 10 µM | CSc1ccc(C(CC2CCOCC2)c2ccc(C)c(=O)[nH]2)cc1 (centres unmarked) [Example 2-18, 3-Methyl-6-{1-[4-(methylsulfanyl)phenyl]-2-(tetrahydro-2H-pyran-4-yl)ethyl}pyridin-2(1H)-one] |
| 3 to 10 µM | Cc1ccc(C(CC2CCOCC2)c2ccc(S(C)(=O)=O)cc2)[nH]c1=O (centres unmarked) [Example 2-19, 3-Methyl-6-{1-[4-(methylsulfonyl)phenyl]-2-(tetrahydro-2H-pyran-4-yl)ethyl}pyridin-2(1H)-one] |
| 0.5 to 3 µM | CSc1ccc(C(CC2CCC(=O)CC2)c2ccc(C)c(=O)[nH]2)cc1 (centres unmarked) [Example 2-20, 3-Methyl-6-{1-[4-(methylsulfanyl)phenyl]-2-(4-oxocyclohexyl)ethyl}pyridin-2(1H)-one] |
| 3 to 10 µM | Cc1ccc(C(CC2CCC(=O)CC2)c2ccc(S(C)(=O)=O)cc2)[nH]c1=O (centres unmarked) [Example 2-21, 3-Methyl-6-{1-[4-(methylsulfonyl)phenyl]-2-(4-oxocyclohexyl)ethyl}pyridin-2(1H)-one] |
| 0.5 to 3 µM | CSc1ccc(C(C[C@H]2CCC(=O)C2)c2ccc(C)c(=O)[nH]2)cc1 (stereo partly drawn) [Example 2-22, 3-Methyl-6-{1-[4-(methylsulfanyl)phenyl]-2-[(1R)-3-oxocyclopentyl]ethyl}pyridin-2(1H)-one] |
| 3 to 10 µM | Cc1ccc(C(C[C@H]2CCC(=O)C2)c2ccc(S(C)(=O)=O)cc2)[nH]c1=O (stereo partly drawn) [Example 2-23, 3-Methyl-6-{1-[4-(methylsulfonyl)phenyl]-2-[(1R)-3-oxocyclopentyl]ethyl}pyridin-2(1H)-one] |
| 3 to 10 µM | CN1CCN(S(=O)(=O)c2ccc(C(CC3CCCC3)c3ccc(Cl)c(=O)[nH]3)cc2)CC1 (centres unmarked) [Example 2-24, 3-Chloro-6-(2-cyclopentyl-1-{4-[(4-methylpiperazin-1-yl)sulfonyl]phenyl}ethyl)pyridin-2(1H)-one] |
| 0.5 to 3 µM | O=c1[nH]c(C(CC2CCCC2)c2ccc(S(=O)(=O)C3CC3)cc2)ccc1Cl (centres unmarked) [Example 2-25, 3-Chloro-6-{2-cyclopentyl-1-[4-(cyclopropylsulfonyl)phenyl]ethyl}pyridin-2(1H)-one] |
| 0.01 to 0.5 µM | CSc1ccc(/C(=C\[C@H]2CCC(=O)N2)c2ccc(C3CC3)c(=O)[nH]2)cc1 [Example 4-1, 3-Cyclopropyl-6-{(E)-1-[4-(methylsulfanyl)phenyl]-2-[(2R)-5-oxopyrrolidin-2-yl]ethenyl}pyridin-2(1H)-one] |
| 0.5 to 3 µM | CCOc1ccc(/C(=C\[C@H]2CCC(=O)N2)c2ccc(Cl)c(=O)[nH]2)cc1Cl [Example 4-2, 3-Chloro-6-{(E)-1-(3-chloro-4-ethoxyphenyl)-2-[(2R)-5-oxopyrrolidin-2-yl]ethenyl}pyridin-2(1H)-one] |

Second part, the molecule before the results:

| SMILES | EC50 |
| --- | --- |
| NC(=O)Nc1ccc(/C(=C\C2CCCC2)c2ccc(Cl)c(=O)[nH]2)cc1 [Example 1-106, 1-{4-[(E)-1-(5-Chloro-6-oxo-1,6-dihydropyridin-2-yl)-2-cyclopentylethenyl]phenyl}urea] | 0.5 to 3 µM |
| CC(C)c1ccc(/C(=C/[C@H]2CCC(=O)C2)c2ccc(S(C)(=O)=O)cc2)[nH]c1=O [Example 1-107, 6-{(E)-1-[4-(Methylsulfonyl)phenyl]-2-[(1S)-3-oxocyclopentyl]ethenyl}-3-(propan-2-yl)pyridin-2(1H)-one] | 0.01 to 0.5 µM |
| CS(=O)(=O)c1ccc(/C(=C\[C@H]2CCC(=O)C2)c2ccc(C3CC3)c(=O)[nH]2)cc1 [Example 1-108, 3-Cyclopropyl-6-{(E)-1-[4-(methylsulfonyl)phenyl]-2-[(1S)-3-oxocyclopentyl]ethenyl}pyridin-2(1H)-one] | 0.01 to 0.5 µM |
| CC(C)c1ccc(/C(=C\C2CCOCC2)c2ccc(Cl)c(=O)[nH]2)cc1 [Example 1-109, 3-Chloro-6-[(E)-1-[4-(propan-2-yl)phenyl]-2-(tetrahydro-2H-pyran-4-yl)ethenyl]pyridin-2(1H)-one] | 0.5 to 3 µM |
| O=c1[nH]c(/C(=C/C2CCOCC2)c2ccc(S(=O)(=O)C3CC3)cc2)ccc1Cl [Example 1-110, 3-Chloro-6-[(E)-1-[4-(cyclopropylsulfonyl)phenyl]-2-(tetrahydro-2H-pyran-4-yl)ethenyl]pyridin-2(1H)-one] | 0.5 to 3 µM |
| O=c1[nH]c(/C(=C/C2CCOCC2)c2ccc(N3CCOCC3)cc2)ccc1Cl [Example 1-111, 3-Chloro-6-[(E)-1-[4-(morpholin-4-yl)phenyl]-2-(tetrahydro-2H-pyran-4-yl)ethenyl]pyridin-2(1H)-one] | 3 to 10 µM |
| CC(=O)c1ccc(/C(=C\C2CCOCC2)c2ccc(Cl)c(=O)[nH]2)cc1 [Example 1-112, 6-[(E)-1-(4-Acetylphenyl)-2-(tetrahydro-2H-pyran-4-yl)ethenyl]-3-chloropyridin-2(1H)-one] | 3 to 10 µM |
| CS(=O)(=O)c1ccc(C/C(=C\C2CCOCC2)c2ccc(Cl)c(=O)[nH]2)cc1 [Example 1-113, 3-Chloro-6-[(1E)-3-[4-(methylsulfonyl)phenyl]-1-(tetrahydro-2H-pyran-4-yl)prop-1-en-2-yl]pyridin-2(1H)-one] | 3 to 10 µM |
| CSc1ccc(C(CC2CCCC2)c2ccc(C)c(=O)[nH]2)cc1 (centres unmarked) [Example 2-1, 6-{2-Cyclopentyl-1-[4-(methylsulfanyl)phenyl]ethyl}-3-methylpyridin-2(1H)-one] | 0.5 to 3 µM |
| Cc1ccc(C(CC2CCCC2)c2ccc(S(C)(=O)=O)cc2)[nH]c1=O (centres unmarked) [Example 2-2, 6-{2-Cyclopentyl-1-[4-(methylsulfonyl)phenyl]ethyl}-3-methylpyridin-2(1H)-one] | 0.5 to 3 µM |
| Cc1ccc(C(CC2CCCC2)c2ccc(S(=O)(=O)C3CC3)cc2)[nH]c1=O (centres unmarked) [Example 2-3, 6-{2-Cyclopentyl-1-[4-(cyclopropylsulfonyl)phenyl]ethyl}-3-methylpyridin-2(1H)-one] | 0.01 to 0.5 µM |
| CSc1ccc(C(CC2CCCC2)c2ccc(C)c(=O)[nH]2)cc1Cl (centres unmarked) [Example 2-4, 6-{1-[3-Chloro-4-(methylsulfanyl)phenyl]-2-cyclopentylethyl}-3-methylpyridin-2(1H)-one] | 0.5 to 3 µM |
| Cc1ccc(C(CC2CCCC2)c2ccc(S(C)(=O)=O)c(Cl)c2)[nH]c1=O (centres unmarked) [Example 2-5, 6-{1-[3-Chloro-4-(methylsulfonyl)phenyl]-2-cyclopentylethyl}-3-methylpyridin-2(1H)-one] | 0.5 to 3 µM |
| CCc1ccc(C(CC2CCCC2)c2ccc(SC)cc2)[nH]c1=O (centres unmarked) [Example 2-6, 6-{2-Cyclopentyl-1-[4-(methylsulfanyl)phenyl]ethyl}-3-ethylpyridin-2(1H)-one] | 0.5 to 3 µM |
| CCc1ccc(C(CC2CCCC2)c2ccc(S(C)(=O)=O)cc2)[nH]c1=O (centres unmarked) [Example 2-7, 6-{2-Cyclopentyl-1-[4-(methylsulfonyl)phenyl]ethyl}-3-ethylpyridin-2(1H)-one] | 0.5 to 3 µM |
| CCCc1ccc(C(CC2CCCC2)c2ccc(SC)cc2)[nH]c1=O (centres unmarked) [Example 2-8, 6-{2-Cyclopentyl-1-[4-(methylsulfanyl)phenyl]ethyl}-3-propylpyridin-2(1H)-one] | 0.5 to 3 µM |
